Experimental data as given in PubChem BioAssay (NCI).
“And” between values parts separate entries of the source, which are not always exact repeats. Equal entries are not always repeated.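 A five-concentration, 48-hour dose response in 96-well plates underlies each endpoint, interpolated linearly between surrounding concentrations. GI50 = concentration required for 50% inhibition of growth. TGI: total growth inhibition.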

How the values were obtained:
Assay in all cases: growth of human tumour cells (NCI), 48 h
NCI/ADR-RES ovarian = tested on: NCI/ADR-RES ovarian
OVCAR-8 ovarian = tested on: OVCAR-8 ovarian
RXF 393 renal = tested on: RXF 393 renal
PC-3 prostate = tested on: PC-3 prostate
CCRF-CEM leukemia = tested on: CCRF-CEM leukemia
HCT-116 colon = tested on: HCT-116 colon
M14 melanoma = tested on: M14 melanoma
OVCAR-3 ovarian = tested on: OVCAR-3 ovarian
OVCAR-5 ovarian = tested on: OVCAR-5 ovarian
HT29 colon = tested on: HT29 colon

Row | SMILES | TGI (NCI/ADR-RES ovarian) | TGI (OVCAR-8 ovarian) | TGI (RXF 393 renal) | TGI (PC-3 prostate) | TGI (CCRF-CEM leukemia) | TGI (HCT-116 colon) | TGI (M14 melanoma) | TGI (OVCAR-3 ovarian) | TGI (OVCAR-5 ovarian) | TGI (HT29 colon) | GI50 (RXF 393 renal) | GI50 (PC-3 prostate) | GI50 (HT29 colon) | GI50 (NCI/ADR-RES ovarian) | GI50 (OVCAR-8 ovarian) | GI50 (HCT-116 colon) | GI50 (M14 melanoma) | GI50 (OVCAR-3 ovarian) | GI50 (OVCAR-5 ovarian)
1 | O=C1C/C(=C\O)C(=O)c2ccccc2N1 | > 100 µM | > 100 µM | > 100 µM | > 100 µM | > 100 µM | > 100 µM | > 100 µM | > 100 µM | > 100 µM | > 100 µM | – | – | – | – | – | – | – | – | –
2 | COC(=O)Cc1c(C2=Nc3ccccc3C2(O)CC(=O)OC)[nH]c2ccccc12 (stereo not drawn) | > 100 µM | > 100 µM | > 100 µM | > 100 µM | 54.5 µM | > 100 µM | > 100 µM | > 100 µM | > 100 µM | > 100 µM | – | – | – | – | – | – | – | – | –
3 | O=C1c2ccccc2S(=O)(=O)c2ccccc21 | > 100 µM | > 100 µM | > 100 µM | > 100 µM | > 100 µM | > 100 µM | > 100 µM | > 100 µM | > 100 µM | > 100 µM | – | – | – | – | – | – | – | – | –
4 | OC(CC(c1ccccc1)c1ccc(Cl)cc1)c1ccc(Cl)cc1 (stereo not drawn) | 95.2 µM | > 100 µM | 65.8 µM | > 100 µM | > 100 µM | > 100 µM | > 100 µM | 81.6 µM | 62 µM | > 100 µM | – | – | – | – | – | – | – | – | –
5 | CCCCCCCCCCCCCCCCP(=O)(O)OP(=O)(O)OCC1OC(n2ccc(N)nc2=O)C(O)C1O (stereo not drawn) | > 100 µM | > 100 µM and 51.3 µM | > 100 µM and 41.1 µM | > 100 µM | > 100 µM and 21.4 µM | > 100 µM and 37.4 µM | > 100 µM | > 100 µM | 65.3 µM and > 64.4 µM | > 100 µM | 62.6 µM and 19.8 µM | 37.8 µM and 10.8 µM | > 100 µM and 19.9 µM | – | – | – | – | – | –
6 | CC1CN=C(c2cccc(OCc3ccc(COc4cccc(C5=NCC(C)N5)c4)cc3)c2)N1 (stereo not drawn) | > 100 µM | > 100 µM | > 100 µM | > 100 µM | 66.8 µM | > 100 µM | > 100 µM | > 100 µM | > 100 µM | > 100 µM | – | – | – | – | – | – | – | – | –
7 | O=C1c2cc(Cl)ccc2-n2c(noc2=O)C2CSCN12 (stereo not drawn) | > 100 µM | > 100 µM | > 100 µM | > 100 µM | > 100 µM | > 100 µM | > 100 µM | > 100 µM | > 100 µM | > 100 µM | – | – | – | – | – | – | – | – | –
8 | CC1=NN(c2ccc(C)cc2)C2(C1)SCC(=O)N2c1nc2ccccc2s1 (stereo not drawn) | 76.2 µM | > 100 µM | 54.8 µM | 70.1 µM | 28.4 µM | 51.1 µM | > 100 µM | 92.6 µM | > 100 µM | > 100 µM | – | – | – | – | – | – | – | – | –
9 | CCOC(=O)c1cc(-c2ccc(OC)c(OC)c2)c[nH]1 | > 10 µM | > 10 µM | > 10 µM | > 10 µM | > 10 µM | > 10 µM | > 10 µM | > 10 µM | > 10 µM | > 10 µM | – | – | – | – | – | – | – | – | –
10 | Oc1c2cccc1Cc1cccc3c1OCCOCCOCCOCCOc1c(cccc1Cc1cccc(c1O)C3)C2 | > 100 µM | > 100 µM | > 100 µM | > 100 µM | > 100 µM | > 100 µM | > 100 µM | > 100 µM | > 100 µM | > 100 µM | – | – | – | – | – | – | – | – | –
11 | COc1ccccc1C(=O)c1c(N2CCCCC2)c(=O)c1=O | > 100 µM | > 100 µM | > 100 µM | > 100 µM | > 100 µM | > 100 µM | > 100 µM | > 100 µM | > 100 µM | > 100 µM | – | – | – | – | – | – | – | – | –
12 | O=C(c1ccccc1F)c1c(NCc2ccccc2)c(=O)c1=O | > 100 µM | > 100 µM | > 100 µM | > 100 µM | > 100 µM | > 100 µM | > 100 µM | > 100 µM | > 100 µM | > 100 µM | – | – | – | – | – | – | – | – | –
13 | CSc1c(C(C)=O)c(O)n(-c2ccc(Cl)cc2)c(=O)c1C#N | > 100 µM | > 100 µM | > 100 µM | > 100 µM | 54.3 µM | > 100 µM | > 100 µM | > 100 µM | > 100 µM | > 100 µM | – | – | – | – | – | – | – | – | –
14 | Cc1ccc(-c2cc(-c3ccc(Cl)cc3)nc(/N=C3\C(=O)N(CN4CCCCC4)c4ccc(Cl)cc43)n2)cc1 | 62.4 µM | 38.8 µM | 33.2 µM | > 100 µM | > 100 µM | 76.1 µM | 46.6 µM | > 100 µM | > 100 µM | > 100 µM | – | – | – | – | – | – | – | – | –
15 | O=C(C[C@@H]1NCCC[C@H]1O)Cn1cnc2cc(Br)c(Cl)cc2c1=O | 0.603 µM | 0.125 µM | 0.0814 µM | 1.4 µM | > 100 µM | 0.121 µM | 0.0821 µM | 0.9 µM | 0.0883 µM | 0.191 µM | – | – | – | – | – | – | – | – | –
16 | Cc1cccc(NC(=O)CC(=O)N2N=C(N3c4ccccc4Sc4ccccc43)CC2c2ccccc2)c1 (stereo not drawn) | > 100 µM | > 100 µM | > 100 µM | > 100 µM | > 100 µM | > 100 µM | > 100 µM | > 100 µM | > 100 µM | > 100 µM | – | – | – | – | – | – | – | – | –
17 | Oc1ccc2ccccc2c1-c1nnc(CCCCCCCCc2nnc(-c3c(O)ccc4ccccc34)o2)o1 | – | – | 7.93 µM and 31.8 µM | 22.4 µM and 50.6 µM | > 60.3 µM | 13.7 µM and > 50.3 µM | 25 µM and 55.1 µM | – | 25 µM and > 100 µM | – | 1.39 µM | 1.55 µM | 0.36 µM | 0.38 µM | 0.317 µM | 0.796 µM | 4.77 µM | 0.135 µM | 19.9 µM
